What follows are compounds tested on immunoglobulin light chain protein WIL-FL T46L (assay: Differential scanning fluorimetry (thermal shift) assay). Conditions: Table A; temperature shift [Tm]compound-[Tm]vehicle; recombinant WIL-FL T46L.
Type: binding
In the case of `COC(C)(C)CNC(=O)c1nc2c(C)cc(N3CC[C@](C)(c4ccccc4)C3)cn2n1` [Compound 107], the DSF is reported as “***** (>2.5° C.=*****)”.
`Cc1cnc(C2C3COC2(c2nc4c(C)cc(N5CC[C@](C)(c6ccccc6)C5)cn4n2)C3)[nH]1` (stereo partly shown) [Compound 70] was tested, and the DSF was “***** (>2.5° C.=*****)”.
In the case of `CNC(=O)C12COC(c3nc4c(C)cc(N5CC[C@](C)(c6ccccc6)C5)cn4n3)(C1)C2c1n[nH]c(C)n1` (stereo partly shown) [Compound 41], the DSF is reported as “***** (>2.5° C.=*****)”.
`Cc1cc(N2CC[C@](C)(c3ccccc3)C2)cn2nc(C(=O)NC3COCC3(C)O)nc12` (stereo partly shown) [Compound 141] was tested, and the DSF was “***** (>2.5° C.=*****)”.
In the case of `Cc1cc(N2CC[C@@](C)(c3cccc(F)c3)C2)cn2nc(C(=O)NCC(C)(C)O)nc12` [Compound 382], the DSF is reported as “***** (>2.5° C.=*****)”.
With `Cc1cc(N2CC[C@](C)(c3ccccc3)C2)cn2nc(C(=O)NC3COC4(CNC4)C3)nc12` (stereo partly shown) [Compound 152] the DSF was “***** (>2.5° C.=*****)”.
`CNC(=O)c1nc2c(C)cc(N3CC[C@@](c4ccccc4)(C(F)F)C3)cn2n1` [Compound 329] was tested, and the DSF was “***** (>2.5° C.=*****)”.
With `Cc1cc(N2CC[C@](C)(c3ccccc3)C2)cn2nc(C34CC(CO3)C4N3C(=O)NC(=O)C3(C)C)nc12` (stereo partly shown) [Compound 79] the DSF was “***** (>2.5° C.=*****)”.
For `COC1CNCC1NC(=O)c1nc2c(C)cc(N3CC[C@](C)(c4ccccc4)C3)cn2n1` (stereo partly shown) [Compound 166], the DSF was “***** (>2.5° C.=*****)”.
`Cc1cc(N2CC[C@](C)(c3ccccc3)C2)cn2nc(C34CC(CO3)C4CC(N)=O)nc12` (stereo partly shown) [Compound 85] was tested, and the DSF was “***** (>2.5° C.=*****)”.
For `Cc1cc(N2CC[C@](C)(c3ccccc3)C2)cn2nc(S(=O)(=O)NCC(C)(C)O)nc12` [Compound 323], the DSF was “***** (>2.5° C.=*****)”.
`Cc1cc(N2CC[C@](C)(c3ccccc3)C2)cn2nc(C(=O)Nc3ccnc(C(=O)O)c3)nc12` [Compound 262] was tested, and the DSF was “***** (>2.5° C.=*****)”.
`CCC1(c2ccccc2)CN(c2cc(C)c3nc(C(=O)NC4CCN(c5ccnc(C(=O)O)c5)CC4)nn3c2)C1` [Compound 395] was tested, and the DSF was “***** (>2.5° C.=*****)”.
With `Cc1ncn(C2(C)CCN(c3cc(C)c4nc(C(=O)N5C[C@@H]6CN(c7cccc(C(=O)O)n7)C[C@@H]6C5)nn4c3)C2=O)n1` (stereo partly drawn) [Compound 25, 6-((3aR,6aS)-5-(8-methyl-6-(3-methyl-3-(3-methyl-1H-1,2,4-triazol-1-yl)-2-oxopyrrolidin-1-yl)-[1,2,4]triazolo[1,5-a]pyridine-2-carbonyl)hexahydropyrrolo[3,4-c]pyrrol-2(1H)-yl)picolinic acid] the DSF was “* (0-0.5° C.=*)”.
In the case of `Cc1nc(C2C3(C(=O)O)COC2(c2nc4c(C)cc(N5CC[C@](C)(c6ccccc6)C5)cn4n2)C3)n[nH]1` (stereo partly drawn) [Compound 1A, 5-(5-methyl-1H-1,2,4-triazol-3-yl)-1-(8-methyl-6-((R)-3-methyl-3-phenylpyrrolidin-1-yl)-[1,2,4]triazolo[1,5-a]pyridin-2-yl)-2-oxabicyclo[2.1.1]hexane-4-carboxylic acid], the DSF is reported as “***** (>2.5° C.=*****)”.
With `Cc1cc(N2CC[C@](C)(c3ccccc3)C2)cn2nc(C(=O)N3CCOC4(C3)CN(c3cccc(C(=O)O)n3)C4)nc12` [Compound 286] the DSF was “***** (>2.5° C.=*****)”.
With `Cc1cc(N2CC(C)(C)C(C)(c3ccccc3)C2)cn2nc(C(=O)N3C[C@@H]4CN(c5cccc(C(=O)O)n5)C[C@@H]4C3)nc12` (stereo partly shown) [Compound 298] the DSF was “** (>0.5-1 °C =**)”.
For `Cc1cc(N2CC[C@](C)(c3ccccc3)C2)cn2nc(C(=O)N3CCC4(C3)CN(c3cccc(C(=O)O)n3)CCO4)nc12` (stereo partly shown) [Compound 222], the DSF was “***** (>2.5° C.=*****)”.
For `Cc1cc(N2CC[C@](C)(c3ccccc3)C2)cn2nc(C34CC(N)(CO3)C4)nc12` [Compound 5, 1-[8-methyl-6-[(3R)-3-methyl-3-phenyl-pyrrolidin-1-yl]-[1,2,4]triazolo[1,5-a]pyridine-2-yl]-2-oxabicyclo[2.1.1]hexan-4-amine], the DSF was “***** (>2.5° C.=*****)”.
With `Cc1cc(N2CC[C@](C)(c3ccccc3)C2)cn2nc(C(=O)N3CC4(CCC4Oc4cccc(C(=O)O)n4)C3)nc12` (stereo partly shown) [Compound 216] the DSF was “***** (>2.5° C.=*****)”.
In the case of `Cc1cc(N2CC[C@](C)(c3ccccc3)C2)cn2nc(C(=O)NC3CCC(c4ccnc(C(=O)O)c4)CC3)nc12` (stereo partly shown) [Compound 226], the DSF is reported as “***** (>2.5° C.=*****)”.
In the case of `Cc1cc(N2CC[C@](C)(c3ccccc3)C2)cn2nc(C(=O)N3CCOCC3)nc12` [Compound 196], the DSF is reported as “***** (>2.5° C.=*****)”.
In the case of `CNC(=O)c1nc2c(CN)cc(N3CC[C@](C)(c4ccccc4)C3)cn2n1` [Compound 335], the DSF is reported as “***** (>2.5° C.=*****)”.
With `Cc1cc(N2CC[C@](C)(c3ccccc3)C2)cn2nc(C(=O)N3CC[C@]4(CCN(c5cccc(C(=O)O)n5)C4)C3)nc12` [Compound 268] the DSF was “***** (>2.5° C.=*****)”.
In the case of `Cc1cc(OC[C@H](C)c2ccccc2)cn2nc(C(=O)NC3CCC(C)(O)C3)nc12` (stereo partly shown) [Compound 315], the DSF is reported as “**** (>1.5-2.5° C.=****)”.
In the case of `Cc1cc(N2CC[C@](C)(c3ccccc3)C2)cn2nc(C(=O)NC3CCC(F)(F)C3)nc12` (stereo partly shown) [Compound 154], the DSF is reported as “***** (>2.5° C.=*****)”.
For `CC(C)(O)CNC(=O)c1nc2c(CO)cc(N3CC[C@](C)(c4ccccc4)C3)cn2n1` [Compound 350], the DSF was “***** (>2.5° C.=*****)”.
For `Cc1cc(N2CC[C@](C)(c3ccccc3)C2)cn2nc(C34CC(=O)NC(N)(CO3)C4)nc12` (stereo partly shown) [Compound 47], the DSF was “***** (>2.5° C.=*****)”.
For `Cc1cc(N2CC[C@](C)(c3ccccc3)C2)cn2nc(C(=O)NC3CCN(c4cccc(C(=O)O)n4)CC3(C)C)nc12` (stereo partly shown) [Compound 261], the DSF was “***** (>2.5° C.=*****)”.

Same assay, conditions: Table B; temperature shift [Tm]compound-[Tm]vehicle; recombinant WIL-FL T46L
For `Cc1n[nH]c(C2C3(NC(=O)[C@@H]4CC[C@H](C(=O)O)O4)COC2(c2nc4c(C)cc(N5CC[C@](C)(c6ccccc6)C5)cn4n2)C3)n1` (stereo partly drawn) [Compound 538, (2R,5S)-5-((5-(3-methyl-1H-1,2,4-triazol-5-yl)-1-(8-methyl-6-((R)-3-methyl-3-phenylpyrrolidin-1-yl)-[1,2,4]triazolo[1,5-a]pyridin-2-yl)-2-oxabicyclo[2.1.1]hexan-4-yl)carbamoyl)tetrahydrofuran-2-carboxylic acid], the DSF was “***** (>2.5° C.=*****)”.
With `Cc1cc(N2CC[C@](C)(c3ccccc3)C2)cn2nc(C34CC(CO3)C4c3nc(NC(=O)[C@@H]4C[C@H]4C(=O)O)n[nH]3)nc12` (stereo partly shown) [Compound 557] the DSF was “***** (>2.5° C.=*****)”.
`Cc1cc(N2CC[C@](C)(c3ccccc3)C2)cn2nc(C34CC(CO3)C4NCC3(N)CCOCC3)nc12` (stereo partly shown) [Compound 521] was tested, and the DSF was “***** (>2.5° C.=*****)”.
In the case of `Cc1cc(N2CC[C@](C)(c3ccccc3)C2)cn2nc(C34CC(CO3)C4NCC3(N)COC3)nc12` (stereo partly drawn) [Compound 510, N-[(3-aminooxetan-3-yl)methyl]-1-[8-methyl-6-[(3R)-3-methyl-3-phenyl-pyrrolidin-1-yl]-[1,2,4]triazolo[1,5-a]pyridin-2-yl]-2-oxabicyclo[2.1.1]hexan-5-amine], the DSF is reported as “***** (>2.5° C.=*****)”.
For `Cc1cc(N2CC[C@](C)(c3ccccc3)C2)cn2nc(C34CC(C(=O)NC(C)C)(CO3)C4)nc12` [Compound 443], the DSF was “***** (>2.5° C.=*****)”.
`Cc1cc(N2CC[C@@](C)(n3ccc(C(F)(F)F)n3)C2)cn2nc(C(=O)N[C@@H]3CCN(c4cccc(C(=O)O)n4)CC34COC4)nc12` [Compound 701] was tested, and the DSF was “***** (>2.5° C.=*****)”.
In the case of `Cc1cc(N2CC[C@](C)(c3ccccc3)C2)cn2nc(C34CC(Nc5cccc(C(=O)O)n5)(CO3)C4)nc12` [Compound 465, (R)-6-((1-(8-methyl-6-(3-methyl-3-phenylpyrrolidin-1-yl)-[1,2,4]triazolo[1,5-a]pyridin-2-yl)-2-oxabicyclo[2.1.1]hexan-4-yl)amino)picolinic acid], the DSF is reported as “***** (>2.5° C.=*****)”.
For `Cc1cc(N2CC[C@](C)(c3ccccc3)C2)cn2nc(C34CC(CO3)C4CN3CCC(C(=O)O)CC3=O)nc12` (stereo partly shown) [Compound 490], the DSF was “***** (>2.5° C.=*****)”.
In the case of `Cc1cc(N2CC[C@](C)(c3ccccc3)C2)cn2nc(C34CC(CO3)C4CN3CCN(C)C(=O)C3)nc12` (stereo partly shown) [Compound 488], the DSF is reported as “***** (>2.5° C.=*****)”.
For `Cc1nc(C2C3(CNC(=O)CC(C)(C)C(=O)O)COC2(c2nc4c(C)cc(N5CC[C@](C)(c6ccccc6)C5)cn4n2)C3)n[nH]1` (stereo partly shown) [Compound 586], the DSF was “***** (>2.5° C.=*****)”.
`Cc1cc(N2CC[C@](C)(c3ccccc3)C2)cn2nc(C(=O)N3CC[C@@]4(CCN(C(=O)C5CC56CC(C(=O)O)C6)C4)C3)nc12` (stereo partly shown) [Compound 734] was tested, and the DSF was “***** (>2.5° C.=*****)”.
In the case of `Cc1cc(N2CC[C@](C)(c3ccccc3)C2)cn2nc(C(=O)N3CCC34CN(c3cccc(C(=O)O)n3)C4)nc12` [Compound 615], the DSF is reported as “**** (>1.5-2.5° C.=****)”.
In the case of `Cc1cc(N2CC[C@](C)(c3ccccc3)C2)cn2nc(C(=O)N3CCC4(CCN(c5cc(C(=O)O)cnn5)C4)C3)nc12` (stereo partly shown) [Compound 626], the DSF is reported as “***** (>2.5° C.=*****)”.
For `Cc1n[nH]c([C@@H]2[C@@H]3CO[C@@]2(c2nc4c(C)cc(N5CC[C@](C)(c6ccccc6)C5)cn4n2)C3)n1` [Compound 492, 8-methyl-6-[(3R)-3-methyl-3-phenyl-pyrrolidin-1-yl]-2-[(1S,4R,5S)-5-(3-methyl-1H-1,2,4-triazol-5-yl)-2-oxabicyclo[2.1.1]hexan-1-yl]-[1,2,4]triazolo[1,5-a]pyridine], the DSF was “***** (>2.5° C.=*****)”.
`Cc1cc(N2CC[C@](C)(c3ccccc3)C2)cn2nc(C(=O)N3CC[C@@]4(CCN(C(=O)C56CCC(C(=O)O)(CC5)OC6)C4)C3)nc12` [Compound 732] was tested, and the DSF was “***** (>2.5° C.=*****)”.
In the case of `Cc1cc(N2CC[C@@](C)(n3ccc(C(F)(F)F)n3)C2)cn2nc(C34CC(N)(CO3)C4)nc12` [Compound 471, (R)-1-(8-methyl-6-(3-methyl-3-(3-(trifluoromethyl)-1H-pyrazol-1-yl)pyrrolidin-1-yl)-[1,2,4]triazolo[1,5-a]pyridin-2-yl)-2-oxabicyclo[2.1.1]hexan-4-amine], the DSF is reported as “**** (>1.5-2.5° C.=****)”.
For `Cc1cc(N2CC[C@](C)(c3ccccc3)C2)cn2nc(C34CC(N5CCC(C(=O)O)CC5=O)(CO3)C4)nc12` (stereo partly drawn) [Compound 469, 1-(1-(8-methyl-6-((R)-3-methyl-3-phenylpyrrolidin-1-yl)-[1,2,4]triazolo[1,5-a]pyridin-2-yl)-2-oxabicyclo[2.1.1]hexan-4-yl)-2-oxopiperidine-4-carboxylic acid], the DSF was “***** (>2.5° C.=*****)”.
